Data taken from US20120142623A1, “Compositions And Methods For Predicting Inhibitors Of Protein Targets” (priority 2006, published 2012).
Values joined by “and” are separate entries in the source; they are usually repeats but may differ in a detail not shown here. Identical values can stand only once. Like-named read-outs stand apart in the source and are kept apart here.

Tests used:
[1] = system: chloroquine-sensitive strain 3D7 of P. falciparum; assay: P. falciparum growth inhibition in culture, strain 3D7; format: cell-based, Plasmodium falciparum; settings: for result of the 16 tested inhibitors in words (binding): summary of Table 5
P. falciparum = settings: Table 3 section B, high throughput screen [27, 28], cited from earlier work; for EC50: read-out: ED50 in 3D7
[2] = system: chloroquine-resistant strain K1 of P. falciparum; assay: P. falciparum growth inhibition in culture, strain K1; format: cell-based, Plasmodium falciparum
Integrase = Integrase (Human immunodeficiency virus type 1 group M subtype B, UniProt P04585); settings: HIV-1 target Integrase; read-out: Inhibitory effect (uM), IC50, Integrase; cited from earlier work
HSV protease = assay: Surface Plasmon Resonance, HSV protease; format: binding; settings: SPR, FIG. 4
Description: (§1) Four inhibitors were evaluated; our top ranking one (TMPyP4) clearly binds to all three proteases as predicted. […] A third inhibitor, GW8510, predicted to bind fails (i.e., a misprediction). […] Our inhibitor prediction is completely consistent with the observed experimental data which is verified further by cell culture studies in FIG. 4 and compared to existing antiherpes drugs.

CMV protease = CMV protease (Human cytomegalovirus, UniProt P16753); assay: Surface Plasmon Resonance, CMV protease; format: binding; parameters: herpes simplex virus (HSV) proteases (including HSV2, VZV, EBV, CMV, and KSHV); settings: SPR, FIG. 4
Description: as §1

KSHV protease = KSHV protease (Human herpesvirus 8 type P, UniProt Q2HRB6); assay: Surface Plasmon Resonance, KSHV protease; format: binding; parameters: herpes simplex virus (HSV) proteases (including HSV2, VZV, EBV, CMV, and KSHV); settings: SPR, FIG. 4
Description: as §1

HSV-1 strain F = assay: HSV-1 infection of Vero cells, virus titer; format: cell-based; settings: FIG. 5 bottom right panel; virus not named
[3] = system: HIV-1 gp41 HR1 wild-type and mutants; settings: cited from earlier work
Tat = Tat (Human immunodeficiency virus type 1 group M subtype B, UniProt P04608); settings: HIV-1 target Tat; read-out: Inhibitory effect (uM), IC50, Tat; cited from earlier work
[4] = Plasmodium falciparum, 3D7, Table 3 section A, mean of at least two measurements, read-out: ED50 in 3D7
[5] = Plasmodium falciparum, 3D7, Table 5, read-out: ED50 (μM) in 3D7
[6] = Table 5, P. falciparum ED50 in 3D7 and K1
[7] = Plasmodium falciparum, K1, Table 3 section A, mean of at least two measurements, read-out: ED50 in K1
[8] = Plasmodium falciparum, K1, Table 5, read-out: ED50 (μM) in K1
[9] = Table 3 section A, mean of at least two measurements, read-out: ED50 in 3D7
[10] = Table 5, read-out: ED50 (μM) in 3D7
[11] = Table 3 section A, mean of at least two measurements, read-out: ED50 in K1
[12] = Table 5, read-out: ED50 (μM) in K1

## Cc1ccc(NC(=O)c2ccc(CN3CCN(C)CC3)cc2)cc1Nc1nccc(-c2cccnc2)n1 [STI-571, Imatinib]
[1]
  result of the 16 tested inhibitors in words (binding): moderate binding

## CN(Cc1cnc2nc(N)nc(N)c2n1)c1ccc(C(=O)N[C@@H](CCC(=O)O)C(=O)O)cc1 [Methotrexate]
P. falciparum
  % Inhibition at 10 μM in: 98.4%
  EC50: 0.05 µM

## COc1cccc2c1C(=O)c1c(O)c3c(c(O)c1C2=O)C[C@@](O)(C(C)=O)C[C@@H]3O[C@H]1C[C@H](N)[C@H](O)[C@H](C)O1 [Daunorubicin]
[1]; [4]
  EC50: 0.13 µM
[1]; [5]
  EC50: 0.125 µM
[1]; [6]
  experimentally determined to work: Y (Y—yes (<=1uM ED50))
[1]
  result of the 16 tested inhibitors in words (binding): very strong binding
[2]; [7]
  EC50: < 1 µM
[2]; [8]
  EC50: < 1 µM
P. falciparum
  % Inhibition at 10 μM in: 99.6%

## O=C(O)c1cc(/N=N/c2ccc(S(=O)(=O)Nc3ccccn3)cc2)ccc1O [Sulfasalazine]
[1]; [4]
  EC50: > 40 µM
[1]; [5]
  EC50: > 40 µM
[1]; [6]
  experimentally determined to work: N
[2]; [7]
  EC50: > 40 µM
[2]; [8]
  EC50: > 40 µM

## COc1ccc(CCN2CCC(Nc3nc4ccccc4n3Cc3ccc(F)cc3)CC2)cc1 [Astemizole]
P. falciparum
  % Inhibition at 10 μM in: 97.6%

## CC[C@H](CO)Nc1nc(NCc2ccccc2)c2ncn(C(C)C)c2n1 [Roscovitine]
[1]; [6]
  experimentally determined to work: N

## CCN(CCO)CCCC(C)Nc1ccnc2cc(Cl)ccc12 (stereo not drawn) [Hydroxychloroquine]
Integrase
  IC50: > 100 µM

## COc1ccc(C[C@H](N)C(=O)N[C@H]2[C@@H](O)[C@H](n3cnc4c(N(C)C)ncnc43)O[C@@H]2CO)cc1 [Puromycin]
P. falciparum
  % Inhibition at 10 μM in: 98.9%

## Cc1nc2n(c(=O)c1CCN1CCC(c3noc4cc(F)ccc34)CC1)CCCC2 [Risperidone]
P. falciparum
  % Inhibition at 10 μM in: 67.5%

## CN(C)S(=O)(=O)c1ccc2c(c1)/C(=C/c1cc3c([nH]1)CCCC3)C(=O)N2 [SU6656]
[1]; [9]
  EC50: > 40 µM
[1]; [6]
  experimentally determined to work: N
[1]; [10]
  EC50: 10 µM
HSV protease
  disassociation constant (Kd), HSV protease: verified to not bind
CMV protease
  disassociation constant (Kd), CMV protease: verified to not bind
KSHV protease
  disassociation constant (Kd), KSHV protease: verified to not bind

## CN1C[C@H](CNC(=O)OCc2ccccc2)C[C@@H]2c3cccc4c3c(cn4C)C[C@H]21 [Metergoline]
P. falciparum
  % Inhibition at 10 μM in: 85.9%
  EC50: 5.4 µM

## Oc1ccc(Cc2nc3c(Cc4ccccc4)nc(-c4ccc(O)cc4)cn3c2O)cc1 [Coelenterazine]
[1]; [4]
  EC50: 10 to 40 µM
[1]; [5]
  EC50: 10 to 40 µM
[1]; [6]
  experimentally determined to work: N
[2]; [7]
  EC50: 1 to 10 µM
[2]; [8]
  EC50: 1 to 10 µM

## O=CN1CCN(c2ccc(/C=C3\C(=O)Nc4ccccc43)cc2)CC1 [SU4984]
[1]; [9]
  EC50: > 40 µM
[1]; [6]
  experimentally determined to work: N

## O=C(O)CCC(=O)Nc1ccc(S(=O)(=O)Nc2nccs2)cc1 [Succinylsulfathiazole]
[1]; [4]
  EC50: > 40 µM
[1]; [5]
  EC50: > 40 µM
[1]; [6]
  experimentally determined to work: N
[2]; [7]
  EC50: > 40 µM
[2]; [8]
  EC50: > 40 µM

## C[C@]12C=CC(=O)C=C1CC[C@@H]1C2=CC[C@]2(C)[C@@H](C(=O)CN3CCN(c4cc(N5CCCC5)nc(N5CCCC5)n4)CC3)CC[C@@H]12.O=C(O)/C=C\C(=O)O [U-74389G]
[1]; [9]
  EC50: 0.83 µM
[1]; [6]
  experimentally determined to work: Y (Y—yes (<=1uM ED50))
[1]; [10]
  EC50: 0.825 µM
[1]
  result of the 16 tested inhibitors in words (binding): very strong binding
[2]; [11]
  EC50: < 1 µM
[2]; [12]
  EC50: < 1 µM

## CN([C@@H](Cc1ccc(OS(=O)(=O)c2cccc3cnccc23)cc1)C(=O)N1CCN(c2ccccc2)CC1)S(=O)(=O)c1cccc2cnccc12 [KN62]
[1]; [9]
  EC50: 0.69 µM
[1]; [6]
  experimentally determined to work: Y (Y—yes (<=1uM ED50))
[1]; [10]
  EC50: 0.69 µM
[1]
  result of the 16 tested inhibitors in words (binding): very strong binding
[2]; [11]
  EC50: < 1 µM
[2]; [12]
  EC50: < 1 µM

## Cl.Cn1cc(C2=C(c3c4n(c5ccccc35)CCC(CN)C4)C(=O)NC2=O)c2ccccc21 (stereo not drawn) [Bisindolylmaleimide X]
[1]; [9]
  EC50: 1 to 10 µM
[1]; [6]
  experimentally determined to work: N
[1]; [10]
  EC50: 1 to 10 µM
[2]; [11]
  EC50: 1 to 10 µM
[2]; [12]
  EC50: 1 to 10 µM

## COc1cccc2c1C(=O)c1c(O)c3c(c(O)c1C2=O)C[C@@](O)(C(=O)CO)C[C@@H]3O[C@H]1C[C@H](N)[C@@H](O)[C@H](C)O1 [Epirubicin]
P. falciparum
  % Inhibition at 10 μM in: 98.4%

## Cc1cc(C)c(/C=C2\C(=O)Nc3ccc(Cl)cc32)[nH]1 [SU5614]
[1]; [6]
  experimentally determined to work: N

## O=C1c2ccc3c4ccc5c6c(ccc(c7ccc(c2c37)C(=O)N1CCN1CCCCC1)c64)C(=O)N(CCN1CCCCC1)C5=O [PIPER]
[1]; [9]
  EC50: 10 to 40 µM
[1]; [6]
  experimentally determined to work: N
[1]; [10]
  EC50: 10 to 40 µM
[2]; [11]
  EC50: 10 to 40 µM
[2]; [12]
  EC50: 10 to 40 µM

## C=CC1=C(C)c2cc3[nH]c(cc4nc(cc5[nH]c(cc1n2)c(C)c5CCC(=O)O)C(CCC(=O)O)=C4C)c(C)c3C=C [Protoporphrin, Protoporphyrin IX]
[1]; [4]
  EC50: 10 to 40 µM
[1]; [5]
  EC50: 10 to 40 µM
[1]; [6]
  experimentally determined to work: N
[2]; [7]
  EC50: 10 to 40 µM
[2]; [8]
  EC50: 10 to 40 µM

## Cc1c[nH]c(/C=C2\C(=O)Nc3ccccc32)c1CCC(=O)O [SU5402]
[1]; [9]
  EC50: > 40 µM
[1]; [6]
  experimentally determined to work: N

## CN1CCCC1CCn1cc(C2=C(c3c[nH]c4ccccc34)C(=O)NC2=O)c2ccccc21 (stereo not drawn) [Bisindolylmaleimide II]
[1]; [9]
  EC50: 1 to 10 µM
[1]; [6]
  experimentally determined to work: N
[1]; [10]
  EC50: 1 to 10 µM
[2]; [11]
  EC50: 1 to 10 µM
[2]; [12]
  EC50: 1 to 10 µM

## Cc1c(C(=O)c2cccc3ccccc23)c2cccc3c2n1[C@H](CN1CCOCC1)CO3 [R-(+)-WIN55212-2]
[1]
  experimentally determined to work: N
[1]; [9]
  EC50: 10 to 40 µM
[1]; [10]
  EC50: 10 to 40 µM
[2]; [11]
  EC50: 10 to 40 µM
[2]; [12]
  EC50: 10 to 40 µM

## Nc1nc2c(ncn2COCCO)c(=O)[nH]1 [acylovir]
HSV-1 strain F
  effectiveness after passage for several cycles with both acylovir and TMPyP4: complete resistance to acylovir occurs

## Bisindolylmaleimide VII
[1]; [9]
  EC50: 1 to 10 µM
[1]; [6]
  experimentally determined to work: N
[1]; [10]
  EC50: 1 to 10 µM
[2]; [11]
  EC50: 1 to 10 µM
[2]; [12]
  EC50: 1 to 10 µM

## enfuvirtide
[3]; HR1 Wild-type
  EC50: 0.012 µg/mL
[3]; HR1 mutation N42T + N43K
  EC50: 0.388 µg/mL
[3]; HR1 mutation N42T + N43S
  EC50: 0.727 µg/mL
[3]; HR1 mutation N42T
  EC50: 0.045 µg/mL
[3]; HR1 mutation V38A + N42D
  EC50: 1.685 µg/mL
[3]; HR1 mutation V38A + N42T
  EC50: 1.782 µg/mL
[3]; HR1 mutation V38A
  EC50: 0.188 µg/mL
[3]; HR1 mutation V38E + N42S
  EC50: 6.156 µg/mL

## COc1cc(/C=C/C(=O)CC(=O)/C=C/c2ccc(O)c(OC)c2)ccc1O [Curcumin]
Tat
  IC50: < 30 µM

## O=C(c1ccc(OCCN2CCCCC2)cc1)c1c(-c2ccc(O)cc2)sc2cc(O)ccc12 [Raloxifene]
P. falciparum
  % Inhibition at 10 μM in: 97.1%
  EC50: < 0.5 µM

## CC[C@@]1(O)C(=O)OCc2c1cc1n(c2=O)Cc2cc3c(CN(C)C)c(O)ccc3nc2-1 [Topotecan]
P. falciparum
  % Inhibition at 10 μM in: 80.1%

## O=C1Nc2ccc3ncsc3c2/C1=C/Nc1ccc(S(=O)(=O)Nc2ccccn2)cc1 [GW8510]
[1]; [9]
  EC50: 1 to 10 µM
[1]; [6]
  experimentally determined to work: N
[1]; [10]
  EC50: 1 to 10 µM
[2]; [11]
  EC50: 1 µM
[2]; [12]
  EC50: 1 µM
HSV protease
  disassociation constant (Kd), HSV protease: fails
CMV protease
  disassociation constant (Kd), CMV protease: fails
KSHV protease
  disassociation constant (Kd), KSHV protease: fails

## CC1(C)S[C@@H]2[C@H](NC(=O)[C@H](NC(=O)N3CCNC3=O)c3ccccc3)C(=O)N2[C@H]1C(=O)O [Azlocillin]
P. falciparum
  EC50: 1.5 µM

## CN1C[C@H](C(=O)N[C@]2(C)O[C@@]3(O)[C@@H]4CCCN4C(=O)[C@H](Cc4ccccc4)N3C2=O)C[C@@H]2c3cccc4[nH]cc(c34)C[C@H]21 [Dihydroergotamine]
P. falciparum
  % Inhibition at 10 μM in: 88.1%
  EC50: 4 µM and 3 µM

## CC[C@]1(O)C[C@@H]2CN(CCc3c([nH]c4ccccc34)[C@@](C(=O)OC)(c3cc4c(cc3OC)N(C)[C@H]3[C@@](O)(C(N)=O)[C@H](O)[C@]5(CC)C=CCN6CC[C@]43[C@@H]65)C2)C1 [Vindesine]
P. falciparum
  % Inhibition at 10 μM in: 81.9%
